Test results published in patent publication US12227500B2, “Substituted pyrrolo[2,3-b]pyridines for suppressing toxic endoplasmic reticulum stress” (THE TRUSTEES OF COLUMBIA UNIVERSITY IN THE CITY OF NEW YORK, priority 2018, dated 2025).

Legend:
[1] = test system: human stem cell-derived motor neurons derived from a healthy patient; experiment: CPA survival assay, wild-type human stem cell-derived motor neurons; settings: for motor neuron survival restored, % of vehicle controls (maximum): CPA 33 μM, at 1.2 μM (PF-6260933), 2.4 μM (GNE-495), 0.6 μM (URMC-099)
[2] = test system: human ES motor neurons; experiment: Rescue of CPA toxicity by kinase inhibitors in dilution series (FIG. 3); settings: dilution series, FIG. 3
[3] = biological target: T1, HGK/MAP4K4 (Homo sapiens, UniProt O95819); settings: Ammirati et al. 2015; Ndubaku et al. 2015; cited from earlier work
Target sequence in this assay (O95819 whole entry, species assumed): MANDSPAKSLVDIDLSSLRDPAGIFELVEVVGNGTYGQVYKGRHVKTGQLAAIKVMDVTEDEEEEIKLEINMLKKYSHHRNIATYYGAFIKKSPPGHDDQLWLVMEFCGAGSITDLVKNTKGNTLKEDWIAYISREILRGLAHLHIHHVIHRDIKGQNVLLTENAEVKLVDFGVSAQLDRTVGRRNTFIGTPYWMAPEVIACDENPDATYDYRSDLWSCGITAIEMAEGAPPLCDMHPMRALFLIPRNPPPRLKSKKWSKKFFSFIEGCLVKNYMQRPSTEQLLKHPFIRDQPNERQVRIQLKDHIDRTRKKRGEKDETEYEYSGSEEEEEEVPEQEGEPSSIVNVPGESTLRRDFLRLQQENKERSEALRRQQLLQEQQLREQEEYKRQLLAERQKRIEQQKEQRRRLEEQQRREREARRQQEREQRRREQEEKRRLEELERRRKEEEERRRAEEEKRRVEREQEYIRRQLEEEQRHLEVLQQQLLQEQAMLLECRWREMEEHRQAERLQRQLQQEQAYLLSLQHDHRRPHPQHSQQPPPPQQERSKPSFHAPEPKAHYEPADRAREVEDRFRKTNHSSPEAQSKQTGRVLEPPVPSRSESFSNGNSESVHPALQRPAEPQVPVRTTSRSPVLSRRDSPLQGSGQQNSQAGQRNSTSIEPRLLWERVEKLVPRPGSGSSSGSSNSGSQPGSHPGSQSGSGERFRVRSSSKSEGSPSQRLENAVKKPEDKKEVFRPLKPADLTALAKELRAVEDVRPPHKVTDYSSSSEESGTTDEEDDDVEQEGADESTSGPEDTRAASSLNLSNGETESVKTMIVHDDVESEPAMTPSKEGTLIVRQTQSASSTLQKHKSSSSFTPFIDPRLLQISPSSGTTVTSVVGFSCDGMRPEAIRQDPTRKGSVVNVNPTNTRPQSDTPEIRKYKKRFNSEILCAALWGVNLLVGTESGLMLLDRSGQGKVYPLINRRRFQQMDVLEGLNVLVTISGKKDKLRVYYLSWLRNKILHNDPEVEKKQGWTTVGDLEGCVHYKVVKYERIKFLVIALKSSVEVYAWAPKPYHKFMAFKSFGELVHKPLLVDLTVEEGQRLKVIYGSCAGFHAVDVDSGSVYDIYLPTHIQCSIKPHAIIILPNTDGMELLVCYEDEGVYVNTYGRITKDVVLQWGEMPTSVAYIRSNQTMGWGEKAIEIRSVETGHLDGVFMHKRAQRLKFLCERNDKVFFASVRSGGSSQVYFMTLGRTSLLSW

[4] = biological target: NUAK1 (Homo sapiens, UniProt O60285); settings: 0.5 μM inhibitor; Anastassiadis et al. 2011; cited from earlier work
Sequence of NUAK1 (O60285 whole entry, species assumed): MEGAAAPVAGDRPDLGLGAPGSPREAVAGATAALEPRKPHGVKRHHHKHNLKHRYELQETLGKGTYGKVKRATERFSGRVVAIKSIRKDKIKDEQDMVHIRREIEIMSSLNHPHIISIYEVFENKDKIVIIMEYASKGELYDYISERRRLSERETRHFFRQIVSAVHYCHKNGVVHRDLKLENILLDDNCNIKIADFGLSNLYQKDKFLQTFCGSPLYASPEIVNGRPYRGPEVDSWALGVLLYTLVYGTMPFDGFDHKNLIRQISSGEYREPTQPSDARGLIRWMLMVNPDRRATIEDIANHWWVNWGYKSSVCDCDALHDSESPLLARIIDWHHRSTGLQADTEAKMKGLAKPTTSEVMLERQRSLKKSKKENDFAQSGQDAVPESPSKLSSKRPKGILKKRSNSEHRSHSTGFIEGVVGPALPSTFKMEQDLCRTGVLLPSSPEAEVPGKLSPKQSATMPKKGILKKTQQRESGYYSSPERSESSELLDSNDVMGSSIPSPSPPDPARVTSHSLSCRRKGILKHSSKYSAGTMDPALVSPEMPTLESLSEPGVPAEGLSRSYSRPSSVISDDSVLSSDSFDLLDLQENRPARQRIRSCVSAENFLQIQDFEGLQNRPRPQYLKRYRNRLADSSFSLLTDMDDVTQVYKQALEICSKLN

[5] = biological target: T1, HGK/MAP4K4; experiment: Radiolabeled ATP kinase assay (Reaction Biology Corp.), HGK; format: biochemical; set-up: purchased Reaction Biology Corp; settings: 10 μM ATP, read-out: % Enzyme Activity (relative to DMSO controls), HGK/MAP4K4, Data 1
Protocol: (§1) Meanwhile, the same analogs were analyzed in a radiolabeled ATP assay (10 μM ATP; Reaction Biology Corp.) to compare the extent to which they could inhibit the activity of HGK, MLK1, or MLK3 in a cell-free environment (Table S3 and S4).
Target sequence in this assay (O95819 whole entry): as the sequence (O95819 whole entry, species assumed) above

[6] = test system: human ES motor neurons carrying the ALS-causing SOD1^A4V mutation; experiment: cells; format: cell-based; settings: 72 h
Protocol: Next, survival assays were performed with all the analogs at once to generate a low-variability dataset. All compounds were evaluated at concentrations ranging from 0.1-3.0 μM (five-point dilution) in three technical replicates and two biological replicates.

[7] = biological target: T2, MLK3/MAP3K11 (Homo sapiens, UniProt Q16584); experiment: Radiolabeled ATP kinase assay (Reaction Biology Corp.), MLK3; format: biochemical; settings: 0.1 μM
T2 construct: purchased Reaction Biology Corp
T2 sequence (Q16584 whole entry): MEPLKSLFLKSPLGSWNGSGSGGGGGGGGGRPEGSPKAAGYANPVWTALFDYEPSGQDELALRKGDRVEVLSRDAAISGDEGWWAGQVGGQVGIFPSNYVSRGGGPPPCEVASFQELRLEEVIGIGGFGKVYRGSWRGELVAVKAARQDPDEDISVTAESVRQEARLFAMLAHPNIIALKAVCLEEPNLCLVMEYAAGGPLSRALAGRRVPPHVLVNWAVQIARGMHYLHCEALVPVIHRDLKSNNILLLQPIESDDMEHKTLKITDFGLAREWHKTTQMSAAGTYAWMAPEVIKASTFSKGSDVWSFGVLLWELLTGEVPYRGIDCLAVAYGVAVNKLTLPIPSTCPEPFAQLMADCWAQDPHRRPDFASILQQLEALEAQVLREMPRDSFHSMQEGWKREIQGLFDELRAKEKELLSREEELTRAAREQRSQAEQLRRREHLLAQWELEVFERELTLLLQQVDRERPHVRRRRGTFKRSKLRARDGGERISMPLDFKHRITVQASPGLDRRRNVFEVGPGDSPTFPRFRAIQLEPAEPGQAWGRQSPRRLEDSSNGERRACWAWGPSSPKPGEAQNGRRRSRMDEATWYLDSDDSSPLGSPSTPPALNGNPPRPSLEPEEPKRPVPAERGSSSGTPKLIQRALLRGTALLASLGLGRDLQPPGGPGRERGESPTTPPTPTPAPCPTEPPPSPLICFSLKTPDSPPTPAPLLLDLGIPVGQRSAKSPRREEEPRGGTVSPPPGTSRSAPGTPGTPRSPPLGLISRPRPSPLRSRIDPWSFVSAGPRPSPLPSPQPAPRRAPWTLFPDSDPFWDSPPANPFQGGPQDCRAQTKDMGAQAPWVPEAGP
Protocol: as §1

[8] = test system: N9 microglial cells; experiment: TNFα release by LPS-stimulated microglia (ELISA); format: cell-based, mouse; settings: LPS 0.1-5 μM; 24 h
Protocol: To model microglial activation in vitro, we stimulated mouse N9 microglial cells with increasing concentrations of E. coli-derived lipopolysaccharides (LPS) (0.1-5 μM) to measure release of the pro-inflammatory cytokine TNFα into cell culture media.
Cultures were maintained in DMEM containing FBS (10%, Life Technologies) and Glutamax (1%, Life Technologies). […] N9 cells remaining in the culture dishes were treated with AlamarBlue (Thermo Fisher) to assess viability. 5 μL AlamarBlue was added to each well (containing 50 μL culture media) and incubated for 4 h at 37°.

[9] = test system: HB9::GFP-SOD1^+/A4V human motor neurons; experiment: Rescue of CPA toxicity in human ESC-derived motor neurons, SOD1^+/A4V; format: cell-based; settings: 33 μM CPA
Text: (§2) One advantage of the stem cell-derived motor neuron survival assay is that it can be easily extended to human motor neurons. To adapt the assay to human cells, we generated a new isogenic pair of ESC lines derived from a human ESC line expressing GFP under the control of the Hb9 motor neuron promoter (HUES3 HB9::GFP, (Di Giorgio et al. 2008)). […] . The pair of cell lines was differentiated into motor neurons in parallel using previously published protocols (Amoroso et al. 2013; […] .
(§3) Differentiation of human isogenic HUES3 ESC HB9::GFP reporter lines into motor neurons was performed as previously described (Maury et al. 2015). Cells were dissociated on day 16 of differentiation, FACS-sorted and plated on poly-ornithine- and laminin-coated surfaces as above. Serum-free human motor neuron plating media was supplemented with the antimitotic UFdU and the neurotrophic factors GDNF, BDNF, CNTF, and IGF1 (all at 10 ng/mL) as described (Johnson-Kerner et al. 2015).

[10] = test system: ESC-derived spinal motor neurons and interneurons; experiment: Toxicity of ER stressors in mouse ESC-derived spinal neuron cultures; format: cell-based
Text: One of the selective stressors that we identified was cyclopiazonic acid (CPA), a mycotoxin that reversibly blocks the sarcoendoplasmic reticulum-associated calcium ATPse (SERCA). SERCA is responsible for sequestering calcium from the cytoplasm into the endoplasmic reticulum (ER) (Goeger et al. 1988). SERCA inhibition lowers calcium concentration in the ER, leading to dysfunction of protein folding, activation of the unfolded protein response, ER stress, and apoptosis (Doutheil et al. 1997). […]. For all subsequent experiments, unless stated otherwise, motor neurons were treated with 7.5 μM CPA.
[…]. […] […].
For this analysis, we generated a new ESC line that expresses tdTomato in dI4 and dIL dorsal spinal inhibitory interneurons derived from Ptf1α-expressing progenitors (Hoang et al. 2017, unpublished data). We differentiated this line under conditions that promote the specification of dorsal interneuron identity. FACS-purified tdTomato-expressing interneurons were co-cultured with FACS-purified GFP-expressing spinal motor neurons (FIG. 16E and FIG. 16G).
To strengthen the link between the activation of ER stress and motor neuron degeneration, we extended our study to include two additional compounds that activate ER stress: thapsigargin, a drug that acts similarly to CPA by inhibiting SERCA pumps, but is irreversible (Lytton et al. 1991), and tunicamycin, a drug that triggers ER stress in a calcium-independent manner by inhibiting protein N-glycosylation in the ER (Oslowski et al. 2011). […] Thus, the motor neuron-toxic effects of CPA are likely related to its activation of ER stress pathways and not to its effects on calcium levels or other off-target effects (FIG. 16G).

[11] = test system: hSOD1^G93A motor neurons; experiment: RT-PCR of stress-associated genes after CPA treatment; format: cell-based, mouse
Protocol: . We observed a rapid increase in the expression of Bip and the key downstream effector Chop (Ddit3). Bip was increased 2-fold after 1 hour of CPA exposure, and continued to increase to approximately 5-fold by 8 hours. […] Other genes with >2-fold induction included: p58/PK 255 (6.5 fold at 8 hours), an ER-stress-induced protein kinase; Growth arrest and DNA-damage inducible protein 45 alpha (Gadd45a; […]; Erdj4, a Bip cofactor with involvement in ER associated protein degradation (ERAD) (5-fold at 4-8 hours); Atf4, a downstream mediator of the PERK-axis of the UPR (3-fold at 8 hours); […]; and Nrf2, a PERK substrate (2 fold at 8 hours). Altogether, these expression changes pointed to strong activation of multiple axes of the unfolded protein response (UPR) in motor neurons exposed to CPA (FIG. 19F).
Samples were lysed in TRIzol and frozen at −80° C. until further processing. RNA was extracted using the Qiashredder and Qiagen RNeasy Mini kits (Qiagen) according to the manufacturer's protocol. 1-2 μg total RNA was used for each reverse transcription reaction, and reactions were performed using the TaqMan RT kit (Applied Biosystems, Grand Island, NY, USA). Primer pairs were designed for target transcripts using Primer Express 3.0 (Applied Biosystems). Quantitative PCR reactions were performed using the Power SYBR Green PCR Master Mix (Applied Biosystems). Reactions were run and analyzed on a ViiA 7 (Life Technologies) qPCR instrument using absolute quantification settings.

[12] = test system: HB9::GFP-SOD1^+/+ human motor neurons; experiment: Rescue of CPA toxicity in human ESC-derived motor neurons, SOD1^+/+; format: cell-based; settings: 33 μM CPA
Text: as §2, §3

Nc1ccc(-c2cnc(N)c(-c3ccc(Cl)cc3)c2)cn1 [PF-6260933]
motor neuron survival restored, % of vehicle controls (maximum) [1]: 63% | rescue of CPA toxicity [2]: protected against CPA toxicity in a dose-dependent manner | IC50 [3]: 3.7 nM

CN(C)S(=O)(=O)c1ccc2c(c1)/C(=C/c1cc3c([nH]1)CCCC3)C(=O)N2 [SU6656]
NUAK1 activity remaining [4]: 10.9% | rescue of CPA toxicity [2]: failed to rescue CPA toxicity

Nc1ncc(C(=O)NC2CN(C(=O)C3CC3)C2)c2ccc(-c3cccc(F)c3)nc12 [GNE-495]
motor neuron survival restored, % of vehicle controls (maximum) [1]: 73% | rescue of CPA toxicity [2]: similarly neuroprotective | IC50 [3]: 3.7 nM

CN1CC2CCC(C1)N2Cc1ccc(-c2cnc3[nH]cc(-c4cccc5[nH]ncc45)c3c2)cc1 [Compound 12e, 4-(5-(4-((3-Methyl-3,8-diazabicyclo[3.2.1]octan-8-yl)methyl)phenyl)-1H-pyrrolo[2,3-b]pyridin-3-yl)-1H-indazole]
remaining activity at 0.025 µM ([5]; [Cmpd] 0.025 μM): 2.73% | remaining activity at 0.1 µM ([5]; [Cmpd] 0.1 μM): 0.99% | EC50 ([6]; CPA 33 μM): Amibiguous | viability at 1 µM ([6]; Homo sapiens, Neuron, CPA (33 μM) + compound (1 μM), read-out: Motor Neuron Survival, % untreated): 106% | Emax ([6]; Homo sapiens, Neuron, CPA 33 μM, read-out: Emax (MN survival % untreated)): 144% | remaining activity at 0.1 µM [7]: 71.8% | TNFα secretion in LPS-stimulated microglia [8]: did not significantly decrease TNFα levels

CC(=O)C1=C(O)[C@@H]2[C@H]3c4c[nH]c5cccc(c45)C[C@H]3C(C)(C)N2C1=O [CPA, cyclopiazonic acid]
loss of motor neurons [9]: ~86% | motor neuron survival, % of controls treated with vehicle alone ([1]; CPA 33 μM for 72h, alone): ~40% | effective concentration range at which mutant motor neurons exhibit reduced survival compared to control [10]: 6.25 to 12.5 µM | reduction of survival of GFP− Tuj-1+ non-motor neurons [10]: ~23% | reduction of survival of motor neurons (GFP+, Tuj1+) [10]: ~71% | reduction of co-cultured spinal motor neuron survival ([10]; FACS-purified co-culture, CPA): ~70% | reduction of dorsal spinal interneuron survival ([10]; FACS-purified co-culture, CPA): ~17% | Erdj4 induction ([11]; 4-8 hours): 5 fold | Chop induction ([11]; 4 and 8 hours): 16 fold | Chop induction ([11]; 1 hour): 4 fold | Bip expression increase ([11]; 1 hour of CPA exposure): 2 fold | Gadd45a induction ([11]; 4 hours): 5 fold | Atf4 induction ([11]; 8 hours): 3 fold | Bip expression increase ([11]; 8 hours): approximately 5 fold | Calreticulin induction ([11]; 8 hours): 3 fold | Nrf2 induction ([11]; 8 hours): 2 fold | p58/PK induction ([11]; 8 hours): 6.5 fold | loss of motor neurons [12]: ~71%
